This is an account of results in PMC10682951, “Structure-function and rational design of a spider toxin Ssp1a at human voltage-gated sodium channel subtypes” (Frontiers in Pharmacology, 2023).

Type in all cases: cell-based
One experiment deals with T1, hNaV1.3 (Homo sapiens, UniProt Q9NY46).
T1 construct: host or cells: HEK293
The experiment is described as follows: Automated whole-cell patch-clamp (QPatch 16X), hNaV1.3. The settings on record: for IC50: HEK293 cells expressing hNaV1.3 + β1 subunit, QPatch 16X, holding −80 mV, step to 0 mV, peptide incubated 2 min, 0.1% BSA, mean, SEM and n (3-12). The procedure, abridged: (§1)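 HEK293 cells stably expressing the channel (human subtypes with β1 subunit), held at −80 mV; 2 min peptide pre-incubation, then 20 ms steps to 0 mV after a 200 ms −120 mV conditioning pulse. Extracellular pH 7.3 with 20 mM TEA-Cl, CsF-based pipette solution, 0.1% BSA; IC50 from four-parameter Hill fit.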

A further experiment concerns the target T2, hNaV1.7 (Homo sapiens, UniProt Q15858).
T2 construct: host or cells: HEK293
The experiment is described as follows: Automated whole-cell patch-clamp (QPatch 16X), hNaV1.7. The settings on record: for IC50: HEK293 cells expressing hNaV1.7 + β1 subunit, QPatch 16X, holding −80 mV, step to 0 mV, peptide incubated 2 min, 0.1% BSA, mean, SEM and n (3-9). The method in brief: as §1

Another experiment deals with T3, hNaV1.2 (Homo sapiens, UniProt Q99250).
T3 construct: host or cells: HEK293
The experiment is described as follows: Automated whole-cell patch-clamp (QPatch 16X), hNaV1.2. The settings on record: for IC50: HEK293 cells expressing hNaV1.2 + β1 subunit, QPatch 16X, holding −80 mV, step to 0 mV, peptide incubated 2 min, 0.1% BSA, mean, SEM and n (2-7). The procedure, abridged:
as §1

T1 sequence (Q9NY46 whole entry): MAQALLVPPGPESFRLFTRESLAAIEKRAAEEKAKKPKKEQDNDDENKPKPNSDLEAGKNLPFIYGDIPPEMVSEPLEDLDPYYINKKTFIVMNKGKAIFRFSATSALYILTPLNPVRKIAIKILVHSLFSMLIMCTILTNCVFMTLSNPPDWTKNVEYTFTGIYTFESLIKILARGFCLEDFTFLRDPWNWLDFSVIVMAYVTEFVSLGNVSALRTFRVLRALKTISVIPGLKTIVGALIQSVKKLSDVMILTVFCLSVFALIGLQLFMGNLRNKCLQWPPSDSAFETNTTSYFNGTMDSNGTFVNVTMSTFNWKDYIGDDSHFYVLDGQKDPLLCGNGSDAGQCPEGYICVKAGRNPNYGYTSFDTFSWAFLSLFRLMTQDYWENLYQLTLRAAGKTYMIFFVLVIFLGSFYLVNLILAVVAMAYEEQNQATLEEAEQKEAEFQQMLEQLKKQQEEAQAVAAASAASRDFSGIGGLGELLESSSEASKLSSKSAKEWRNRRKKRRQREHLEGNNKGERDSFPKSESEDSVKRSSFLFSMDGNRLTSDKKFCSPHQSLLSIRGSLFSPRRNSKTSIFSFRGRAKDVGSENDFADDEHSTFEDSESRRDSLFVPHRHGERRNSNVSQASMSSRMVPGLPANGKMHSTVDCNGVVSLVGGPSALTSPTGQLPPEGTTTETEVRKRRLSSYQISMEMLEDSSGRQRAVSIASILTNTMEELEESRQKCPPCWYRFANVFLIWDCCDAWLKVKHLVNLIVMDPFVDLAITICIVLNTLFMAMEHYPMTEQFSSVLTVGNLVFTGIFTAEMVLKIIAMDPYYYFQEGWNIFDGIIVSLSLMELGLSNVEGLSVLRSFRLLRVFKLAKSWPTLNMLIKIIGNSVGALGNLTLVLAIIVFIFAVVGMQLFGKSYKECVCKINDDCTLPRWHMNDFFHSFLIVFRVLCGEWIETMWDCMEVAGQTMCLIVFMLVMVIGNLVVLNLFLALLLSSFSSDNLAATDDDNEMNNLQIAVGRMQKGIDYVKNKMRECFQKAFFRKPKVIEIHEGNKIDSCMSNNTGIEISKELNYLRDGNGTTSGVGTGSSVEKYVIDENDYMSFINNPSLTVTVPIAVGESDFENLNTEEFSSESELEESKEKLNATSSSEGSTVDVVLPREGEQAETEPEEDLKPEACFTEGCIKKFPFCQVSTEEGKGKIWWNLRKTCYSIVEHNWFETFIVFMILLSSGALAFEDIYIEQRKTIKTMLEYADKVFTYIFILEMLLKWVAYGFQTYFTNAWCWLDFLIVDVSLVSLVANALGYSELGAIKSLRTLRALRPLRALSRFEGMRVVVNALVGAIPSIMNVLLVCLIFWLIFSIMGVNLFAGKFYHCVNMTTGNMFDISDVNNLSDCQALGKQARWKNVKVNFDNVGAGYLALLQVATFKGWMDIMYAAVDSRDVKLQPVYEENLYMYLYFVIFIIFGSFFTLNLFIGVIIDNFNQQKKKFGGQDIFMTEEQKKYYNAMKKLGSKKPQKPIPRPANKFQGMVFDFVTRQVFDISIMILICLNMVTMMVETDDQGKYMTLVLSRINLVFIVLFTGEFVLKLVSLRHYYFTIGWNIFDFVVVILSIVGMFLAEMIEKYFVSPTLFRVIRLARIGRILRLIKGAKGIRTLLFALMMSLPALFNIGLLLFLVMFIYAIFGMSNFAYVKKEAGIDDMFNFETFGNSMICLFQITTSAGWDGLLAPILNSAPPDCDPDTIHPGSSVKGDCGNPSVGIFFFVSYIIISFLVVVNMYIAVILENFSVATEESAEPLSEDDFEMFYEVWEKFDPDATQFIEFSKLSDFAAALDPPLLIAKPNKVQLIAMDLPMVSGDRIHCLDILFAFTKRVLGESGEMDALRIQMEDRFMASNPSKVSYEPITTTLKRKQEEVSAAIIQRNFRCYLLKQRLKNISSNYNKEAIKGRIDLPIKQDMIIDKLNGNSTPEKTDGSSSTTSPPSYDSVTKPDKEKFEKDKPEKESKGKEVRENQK
T1 sequence (Q07699 19-218, further chain): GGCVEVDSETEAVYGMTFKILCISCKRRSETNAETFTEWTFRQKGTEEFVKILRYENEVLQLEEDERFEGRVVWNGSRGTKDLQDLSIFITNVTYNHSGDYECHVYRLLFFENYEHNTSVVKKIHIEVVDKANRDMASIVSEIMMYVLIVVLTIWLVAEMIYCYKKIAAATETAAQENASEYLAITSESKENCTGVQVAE
T3 sequence (Q07699 19-218): as the sequence (Q07699 19-218, further chain) above
T3 sequence (Q99250 whole entry): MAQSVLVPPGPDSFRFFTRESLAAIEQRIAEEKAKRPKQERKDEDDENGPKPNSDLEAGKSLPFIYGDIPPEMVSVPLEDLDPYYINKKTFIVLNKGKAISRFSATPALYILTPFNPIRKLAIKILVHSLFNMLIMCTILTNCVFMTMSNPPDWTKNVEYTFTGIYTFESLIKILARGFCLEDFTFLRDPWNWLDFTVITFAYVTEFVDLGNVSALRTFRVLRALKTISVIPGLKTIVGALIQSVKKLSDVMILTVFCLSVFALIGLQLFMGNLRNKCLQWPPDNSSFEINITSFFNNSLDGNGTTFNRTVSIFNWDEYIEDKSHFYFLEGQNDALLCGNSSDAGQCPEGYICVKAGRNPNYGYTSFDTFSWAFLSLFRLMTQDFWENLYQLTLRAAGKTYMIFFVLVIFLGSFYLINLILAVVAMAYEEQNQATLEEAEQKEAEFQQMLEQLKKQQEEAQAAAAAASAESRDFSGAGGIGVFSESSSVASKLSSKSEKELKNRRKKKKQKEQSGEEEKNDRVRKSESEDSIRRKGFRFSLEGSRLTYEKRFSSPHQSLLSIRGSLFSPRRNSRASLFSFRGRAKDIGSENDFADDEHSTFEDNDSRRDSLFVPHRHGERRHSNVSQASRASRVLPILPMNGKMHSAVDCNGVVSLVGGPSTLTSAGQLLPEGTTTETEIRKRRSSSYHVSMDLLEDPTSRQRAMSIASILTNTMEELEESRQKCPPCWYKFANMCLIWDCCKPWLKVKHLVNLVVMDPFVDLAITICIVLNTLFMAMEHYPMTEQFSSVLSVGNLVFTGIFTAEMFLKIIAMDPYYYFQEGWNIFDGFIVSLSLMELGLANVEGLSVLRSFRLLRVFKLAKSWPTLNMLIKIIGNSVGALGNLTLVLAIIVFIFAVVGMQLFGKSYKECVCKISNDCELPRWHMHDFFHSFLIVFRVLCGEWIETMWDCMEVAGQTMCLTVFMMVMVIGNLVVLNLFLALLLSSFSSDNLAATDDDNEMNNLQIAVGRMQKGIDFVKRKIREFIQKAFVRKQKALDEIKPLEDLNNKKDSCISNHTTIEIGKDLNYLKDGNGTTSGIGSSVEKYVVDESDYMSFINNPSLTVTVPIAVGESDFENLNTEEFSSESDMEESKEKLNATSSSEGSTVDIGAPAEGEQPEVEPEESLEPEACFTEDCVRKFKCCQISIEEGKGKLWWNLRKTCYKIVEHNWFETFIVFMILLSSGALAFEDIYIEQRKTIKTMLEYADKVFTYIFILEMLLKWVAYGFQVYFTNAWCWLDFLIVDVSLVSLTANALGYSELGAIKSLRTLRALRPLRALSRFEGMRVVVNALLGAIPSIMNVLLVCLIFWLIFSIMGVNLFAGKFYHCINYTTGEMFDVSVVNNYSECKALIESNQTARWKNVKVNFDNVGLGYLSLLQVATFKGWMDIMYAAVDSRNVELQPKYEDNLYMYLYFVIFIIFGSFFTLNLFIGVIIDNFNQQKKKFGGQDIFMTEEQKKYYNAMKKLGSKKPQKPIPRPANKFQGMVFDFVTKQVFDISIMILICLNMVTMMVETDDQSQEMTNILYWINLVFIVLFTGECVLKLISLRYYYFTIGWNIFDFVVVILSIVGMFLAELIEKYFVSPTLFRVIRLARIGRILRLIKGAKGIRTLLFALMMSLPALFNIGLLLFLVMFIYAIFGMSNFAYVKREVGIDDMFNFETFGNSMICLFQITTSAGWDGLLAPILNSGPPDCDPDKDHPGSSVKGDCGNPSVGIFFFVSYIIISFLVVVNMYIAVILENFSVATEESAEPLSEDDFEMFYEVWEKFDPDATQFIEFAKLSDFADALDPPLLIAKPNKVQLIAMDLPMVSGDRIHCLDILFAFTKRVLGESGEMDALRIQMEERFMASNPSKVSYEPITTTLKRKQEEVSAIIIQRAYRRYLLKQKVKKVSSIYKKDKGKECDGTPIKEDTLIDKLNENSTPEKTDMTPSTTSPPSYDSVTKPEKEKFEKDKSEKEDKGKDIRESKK

With `CC(C)C[C@H](NC(=O)[C@H](CC(=O)O)NC(=O)[C@H](Cc1ccc(O)cc1)NC(=O)[C@H](CCCNC(=N)N)NC(=O)[C@@H]1CSSC[C@@H]2NC(=O)[C@H](CCCCN)NC(=O)[C@H](CC(N)=O)NC(=O)[C@H](CC(N)=O)NC(=O)[C@H](CC(N)=O)NC(=O)[C@@H]3CCCN3C(=O)[C@H](CC(=O)O)NC(=O)[C@@H]3CSSC[C@H](NC(=O)[C@H](C(C)C)NC(=O)[C@H](Cc4ccc(O)cc4)NC(=O)CNC(=O)[C@H](CCC(=O)O)NC(=O)[C@H](CSSC[C@H](NC(=O)[C@H](CC(=O)O)NC(=O)CN)C(=O)N[C@@H](CC(C)C)C(=O)NCC(=O)N[C@@H](Cc4ccccc4)C(=O)N[C@@H](Cc4ccccc4)C(=O)N[C@@H](CO)C(=O)NCC(=O)N3)NC2=O)C(=O)N[C@@H](Cc2c[nH]cn2)C(=O)N[C@@H](Cc2c[nH]c3ccccc23)C(=O)N[C@@H](CCCCN)C(=O)N[C@@H](Cc2ccc(O)cc2)C(=O)N2CCC[C@H]2C(=O)N[C@@H](Cc2c[nH]c3ccccc23)C(=O)N1)C(=O)O` [W5F], the IC50 at hNaV1.3 is more than 3000 nM; on hNaV1.7 it was 1260 nM; on hNaV1.2, 579 nM.
In the same order, the values of `CC(C)C[C@H](NC(=O)[C@H](CC(=O)O)NC(=O)[C@H](Cc1ccc(O)cc1)NC(=O)[C@H](CCCNC(=N)N)NC(=O)[C@@H]1CSSC[C@@H]2NC(=O)[C@H](CCCCN)NC(=O)[C@H](CC(N)=O)NC(=O)[C@H](CC(N)=O)NC(=O)[C@H](CC(N)=O)NC(=O)[C@@H]3CCCN3C(=O)[C@H](CC(=O)O)NC(=O)[C@@H]3CSSC[C@H](NC(=O)[C@H](C(C)C)NC(=O)[C@H](Cc4ccc(O)cc4)NC(=O)CNC(=O)[C@H](CCC(=O)O)NC(=O)[C@H](CSSC[C@H](NC(=O)CNC(=O)CN)C(=O)N[C@@H](CC(C)C)C(=O)NCC(=O)N[C@@H](Cc4c[nH]c5ccccc45)C(=O)N[C@@H](Cc4ccccc4)C(=O)N[C@@H](CO)C(=O)NCC(=O)N3)NC2=O)C(=O)N[C@@H](Cc2c[nH]cn2)C(=O)N[C@@H](Cc2c[nH]c3ccccc23)C(=O)N[C@@H](CCCCN)C(=O)N[C@@H](Cc2ccc(O)cc2)C(=O)N2CCC[C@H]2C(=O)N[C@@H](Cc2c[nH]c3ccccc23)C(=O)N1)C(=O)O` [D1G] are 499 nM, 307 nM and 192 nM.
Regarding `CC(C)C[C@H](NC(=O)[C@H](CC(=O)O)NC(=O)[C@H](Cc1ccc(O)cc1)NC(=O)[C@H](CCCNC(=N)N)NC(=O)[C@@H]1CSSC[C@@H]2NC(=O)[C@H](CCCCN)NC(=O)[C@H](CC(N)=O)NC(=O)[C@H](CC(N)=O)NC(=O)[C@H](CC(N)=O)NC(=O)[C@@H]3CCCN3C(=O)[C@H](CC(=O)O)NC(=O)[C@@H]3CSSC[C@H](NC(=O)[C@H](C(C)C)NC(=O)[C@H](Cc4ccc(O)cc4)NC(=O)CNC(=O)[C@H](CCC(=O)O)NC(=O)[C@H](CSSC[C@H](NC(=O)[C@H](CC(=O)O)NC(=O)CN)C(=O)N[C@@H](CC(C)C)C(=O)NCC(=O)N[C@@H](Cc4c[nH]c5ccccc45)C(=O)N[C@@H](Cc4ccccc4)C(=O)N[C@@H](CO)C(=O)NCC(=O)N3)NC2=O)C(=O)N[C@@H](Cc2c[nH]cn2)C(=O)N[C@@H](CCCNC(=N)N)C(=O)N[C@@H](CCCCN)C(=O)N[C@@H](Cc2ccc(O)cc2)C(=O)N2CCC[C@H]2C(=O)N[C@@H](Cc2c[nH]c3ccccc23)C(=O)N1)C(=O)O` [W24R], the inhibition at 3 µM is approximately 75% at hNaV1.3 (3 µM peptide, QPatch, read-out: Inhibition (block) of hNaV1.3 at 3 µM); approximately 50% against hNaV1.7 (3 µM peptide, QPatch); approximately 65% on hNaV1.2 (3 µM peptide, QPatch, partial inhibition). For the same compound, the figures for the half-maximal inhibitory concentration (IC50) on hNaV1.3, at hNaV1.7 and on hNaV1.2 were 1190 nM, more than 3000 nM and 423 nM, respectively.
